Data published in US10508086B2 (CANCER RESEARCH TECHNOLOGY LIMITED, priority 2014, dated 2019).

How the values were obtained:
PARG in HeLa cell line = PARG in HeLa cell line (Homo sapiens (Human), UniProt Q86W56); test: PARG cell assay (nuclear PAR chains after MMS, immunofluorescence); assay type: cell-based; conditions: HeLa cells, MMS 50 μg/mL; read-out: PARG Cell IC50 Geomean
Protocol: This method is based on the detection of endogenous levels of poly (ADP) ribose chains present in the nucleus of HeLa cell line using indirect immunofluorescence. MMS stimulation increases PAR chains for up to 25 mins. After that point, PARG is active and breaks down the PAR chains, until by one hour after stimulation no PAR chains are detectable. Inhibition of PARG maintains PAR chains.
Briefly, following compound treatment and treatment with the DNA damaging agent methylmethanesulfonate (MMS), the cell monolayer is fixed, then permeabilised and incubated with a mouse monoclonal antibody raised against multimers of poly(ADP) ribose. After an overnight incubation, excess antibody is removed by washing and an Alexafluor 488-linked secondary antibody which recognises the mouse monoclonal is added together with a nuclear stain (Hoechst 33342). Images of the cells are then captured and analysed on a High Content Screening platform and the total intensity of the nuclear fluorescent signal at […] is quantified.
HeLa cells, seeded in 384-well plates, at 4000/well in 30 μL RPMI 1640 media, supplemented with 10% FBS and 2 mM Glutamax, were incubated overnight at 37° C., 5% CO2.
The following day, cells were dosed in quadruplicate with compound (10 point dose response) and incubated for 1 h at 37° C., 5% CO2.
At the end of the 1 h dosing period, MMS was added to duplicates at a final concentration of 50 μg/mL, for a further hour.
Media was tipped off and the cells fixed with 50 μL ice-cold 95% MetOH/PBS for 15 mins at −20° C. Following a PBS wash, 50 μL PBS/0.1% Triton was added to the cells for 20 mins. Following another PBS wash, anti-PAR antibody (Calbiochem AM80) was diluted 1:4000 in a buffer (PBS+0.5% FBS+0.05% Tween20) and added to the cells and incubated overnight at 4° C.
The following day, cells were washed three times with PBS and then incubated for 1 hr with secondary antibody (Alexa Fluor® 488 goat anti mouse IgG (H+L)) diluted 1:1000 and Hoechst diluted 1:5000 in buffer (5% FBS in PBS+0.05% Tween20).
Cells were washed three times with PBS and the plate sealed with a light-proof seal.
Images of the cells were captured on a ThermoFisher Celllnsight and the mean total intensity of spots fluorescent at 485 nm in the nucleus was reported.

Human Full Length PARG = Human Full Length PARG (Homo sapiens (Human), UniProt Q86W56); test: PARG in vitro enzyme assay (TR-FRET); assay type: biochemical; conditions: read-out: PARG_EC50_ENZYME
Chain of Human Full Length PARG (Q86W56 whole entry): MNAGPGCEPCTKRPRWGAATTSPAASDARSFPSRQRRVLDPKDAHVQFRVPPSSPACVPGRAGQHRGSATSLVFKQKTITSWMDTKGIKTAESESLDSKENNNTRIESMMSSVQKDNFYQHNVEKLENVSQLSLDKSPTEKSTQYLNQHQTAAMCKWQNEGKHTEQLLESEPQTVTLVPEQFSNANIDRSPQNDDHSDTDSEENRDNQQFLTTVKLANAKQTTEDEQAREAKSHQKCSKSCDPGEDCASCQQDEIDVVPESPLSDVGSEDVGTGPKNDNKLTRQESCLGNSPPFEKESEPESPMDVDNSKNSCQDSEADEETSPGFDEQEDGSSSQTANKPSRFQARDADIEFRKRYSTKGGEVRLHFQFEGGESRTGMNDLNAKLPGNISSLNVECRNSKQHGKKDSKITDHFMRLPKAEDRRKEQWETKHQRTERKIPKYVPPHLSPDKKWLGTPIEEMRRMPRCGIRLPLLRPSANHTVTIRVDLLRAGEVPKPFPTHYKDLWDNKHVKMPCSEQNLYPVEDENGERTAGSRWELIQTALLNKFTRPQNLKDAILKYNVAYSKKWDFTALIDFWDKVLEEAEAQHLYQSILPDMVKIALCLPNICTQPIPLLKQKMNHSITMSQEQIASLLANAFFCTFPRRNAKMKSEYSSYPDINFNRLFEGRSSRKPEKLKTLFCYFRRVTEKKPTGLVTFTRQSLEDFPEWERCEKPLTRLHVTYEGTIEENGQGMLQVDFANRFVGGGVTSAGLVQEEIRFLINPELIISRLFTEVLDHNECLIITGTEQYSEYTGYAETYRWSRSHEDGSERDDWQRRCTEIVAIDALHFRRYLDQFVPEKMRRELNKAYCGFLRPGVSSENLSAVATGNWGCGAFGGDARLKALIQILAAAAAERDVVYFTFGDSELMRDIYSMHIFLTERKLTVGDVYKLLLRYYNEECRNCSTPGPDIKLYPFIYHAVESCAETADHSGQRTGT
In short: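 Full-length human PARG ([…]) incubated with ribosylated PARP substrate (4.5 nM) for 10 min at room temperature in Tris pH 7.4 buffer with EDTA, EGTA, DTT, KCl. Detection by TR-FRET using anti-6HIS XL665 (14 nM final) and streptavidin europium cryptate (0.75 nM final) after 60 min; Em665/Em620 ratio converted to percent inhibition.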

Chain of PARG in HeLa cell line (Q86W56 whole entry): as above

Compound | IC50 (PARG in HeLa cell line) [nM] | EC50 (Human Full Length PARG) [nM]
Cc1nsc(-n2c(=O)n(C)c3cc(F)c(S(=O)(=O)NC4(C)CC4)cc32)n1 [Example 171, 6-Fluoro-1-methyl-N-(1-methylcyclopropyl)-3-(3-methyl-1,2,4-thiadiazol-5-yl)-2-oxo-benzimidazole-5-sulfonamide] | 1550 | 7110
Cc1nsc(-n2c(=O)n(C)c3cc(F)c(S(=O)(=O)NC4(CF)CC4)cc32)n1 [Example 172, 6-Fluoro-N-[1-(fluoromethyl)cyclopropyl]-1-methyl-3-(3-methyl-1,2,4-thiadiazol-5-yl)-2-oxo-benzimidazole-5-sulfonamide] | 2090 | 12000
Cc1nsc(-n2c(=O)n(C)c3ccc(S(=O)(=O)NC4(C)CC4)cc32)n1 [Example 176, 1-Methyl-N-(1-methylcyclopropyl)-3-(3-methyl-1,2,4-thiadiazol-5-yl)-2-oxo-benzimidazole-5-sulfonamide] | 1790 | 6020
Cc1nsc(-n2c(=O)n(CC#N)c3ccc(S(=O)(=O)NC4(C)CC4)cc32)n1 [Example 179, 1-(Cyanomethyl)-N-(1-methylcyclopropyl)-3-(3-methyl-1,2,4-thiadiazol-5-yl)-2-oxo-benzimidazole-5-sulfonamide] | 1160 | 1150
Cc1nsc(-n2c(=O)n(CC#N)c3ccc(S(=O)(=O)NC4(CF)CC4)cc32)n1 [Example 180, 1-(Cyanomethyl)-N-[1-(fluoromethyl)cyclopropyl]-3-(3-methyl-1,2,4-thiadiazol-5-yl)-2-oxo-benzimidazole-5-sulfonamide] | 1930 | 1130

The next molecules have a lower IC50 (PARG in HeLa cell line) than those just listed; values first:

IC50 (PARG in HeLa cell line) [nM] | EC50 (Human Full Length PARG) [nM] | Compound
36 | 355 | COCCn1c(=O)n(-c2nnc(C(F)F)s2)c2cc(S(=O)(=O)NC3(C)CC3)ccc21 [Example 169, 3-[5-(Difluoromethyl)-1,3,4-thiadiazol-2-yl]-1-(2-methoxyethyl)-N-(1-methylcyclopropyl)-2-oxo-benzimidazole-5-sulfonamide]
89 | 92 | CN(C)CCCn1c(=O)n(-c2nnc(C(F)F)s2)c2cc(S(=O)(=O)NC3(CF)CC3)ccc21 [Example 170, 3-[5-(Difluoromethyl)-1,3,4-thiadiazol-2-yl]-1-[3-(dimethylamino)propyl]-N-[1-(fluoromethyl)cyclopropyl]-2-oxo-benzimidazole-5-sulfonamide]
64 | 141 | Cn1c(=O)n(-c2nnc(C(F)F)s2)c2cc(S(=O)(=O)NC3(C)CC3)c(F)cc21 [Example 173, 3-[5-(Difluoromethyl)-1,3,4-thiadiazol-2-yl]-6-fluoro-1-methyl-N-(1-methylcyclopropyl)-2-oxo-benzimidazole-5-sulfonamide]
551 | 250 | Cn1c(=O)n(-c2ncns2)c2cc(S(=O)(=O)NC3(CF)CC3)ccc21 [Example 175, N-[1-(Fluoromethyl)cyclopropyl]-1-methyl-2-oxo-3-(1,2,4-thiadiazol-5-yl)benzimidazole-5-sulfonamide]
903 | 682 | Cc1nnc(-n2c(=O)n(CC#N)c3ccc(S(=O)(=O)NC4(CF)CC4)cc32)s1 [Example 178, 1-(Cyanomethyl)-N-[1-(fluoromethyl)cyclopropyl]-3-(5-methyl-1,3,4-thiadiazol-2-yl)-2-oxo-benzimidazole-5-sulfonamide]
109 | 291 | Cn1c(=O)n(-c2nnc(C(F)F)s2)c2cc(S(=O)(=O)NC3(CF)CC3)ccc21 [Example 181, 3-[5-(Difluoromethyl)-1,3,4-thiadiazol-2-yl]-N-[1-(fluoromethyl)cyclopropyl]-1-methyl-2-oxo-benzimidazole-5-sulfonamide]
537 | 309 | COCCn1c(=O)n(-c2nc(C)ns2)c2cc(S(=O)(=O)NC3(C)CC3)ccc21 [Example 182, 1-(2-Methoxyethyl)-N-(1-methylcyclopropyl)-3-(3-methyl-1,2,4-thiadiazol-5-yl)-2-oxo-benzimidazole-5-sulfonamide]
